Test results reported in patent US9587471B2, “Controlling bioavailability of nutrient additions in subsurface formations” (E I DU PONT DE NEMOURS AND COMPANY, priority 2008, dated 2017).

Legend:
Assay type in all cases: cell-based
[1] = system: Pseudomonas stutzeri strain LH4:15 (ATCC PTA-8823); test: Aerobic growth response (turbidity) to varying concentrations of industrial preservatives;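 note: single plus means slight turbidity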
Description: (§1) Typically cells were grown at a temperature in the range of about 25° C. to about 40° C. in an appropriate medium.
Pseudomonas stutzeri strain LH4:15 (ATCC PTA-8823) was grown as outlined in Example 1. Various preservatives commonly used in the food, cosmetic, and water treatment industries were tested for their inhibitory effect at various concentrations (Table 2). Growth was monitored visually and positive growth was indicated by moderate to heavy turbidity.

[2] = system: Pseudomonas stutzeri strain LH4:15, ATCC PTA-8823; test: Aerobic growth response (turbidity) to varying concentrations of potential microbial nutrients; note: key: − = no turbidity; + = slight turbidity; ++ = moderate to heavy turbidity
Description: as §1
Additional potential microbial nutrients were added at various concentrations as outlined in Table 1. Growth was monitored visually with positive growth indicated by moderate to heavy turbidity.

[3] = system: Pseudomonas stutzeri strain LH4:15 (ATCC PTA-8823); test: Anaerobic growth and survival: biocidal versus biostatic inhibition; conditions: for change in Log cell number: day 0 vs day 7, anaerobic; for Final anaerobic vial OD: starting OD600 = 0.05
Description: In this invention, the anaerobic growth and survival was tested in 20 ml crimp-capped anaerobic vials, using a complete nutrient medium of the following composition: Na2HPO4.7H2O, 1.4 g/L, KH2PO4, 0.69 g/L, NH4Cl, 0.5 g/L, MgSO4.7H2O, 0.1/L g, SL-10 trace metals, 10 ml, NaCl, 7.5 g/L, NaHCO3, 7.2 g/L, sodium nitrate, 12 g/L, Na lactate, 7 g/L, yeast extract, 10 mg/L, pH 7.3-7.8.
The anaerobic growth and survival was tested as outlined above. […] Vials were inoculated using an overnight aerobic culture of Pseudomonas stutzeri strain LH4:15 (ATCC PTA-8823) in Luria Bertani medium (LB, Mediatech Inc., Herndon, Va.,) at a final OD600 of 0.05. Within 2 hours of inoculation, serial dilutions from each treatment vial were made into aerobic LB medium to determine the cell numbers at Day 0. After approximately 24 hours cell numbers were estimated by noting the highest positive dilution based on the presence or absence of turbidity in dilutions of 10^−1 to 10^−11 in the serial dilution plates. Cell numbers on Day 0 and Day 7 were measured to obtain a survival estimate during inhibitor exposure.

[4] = 0.05 g/L, 24 hours of incubation
[5] = 0.05 g/L, 48 hours of incubation
[6] = 0.05 g/L, 120 hours of incubation
[7] = 0.5 g/L, 24 hours of incubation
[8] = 0.5 g/L, 48 hours of incubation
[9] = 0.5 g/L, 120 hours of incubation
[10] = 10 g/L, 120 hours of incubation
[11] = 20 g/L, 120 hours of incubation
[12] = 50 g/L, 120 hours of incubation

O=S(=O)([O-])[O-].OC[P+](CO)(CO)CO.OC[P+](CO)(CO)CO [Bis(tetrakis(hydroxymethyl))phosphonium sulfate]
growth (turbidity) ([1]; 0.1 g/L): ++
growth (turbidity) ([1]; 0.2 g/L): ++
growth (turbidity) ([1]; 0.3 g/L): −
growth (turbidity) ([1]; 0.4 g/L): −

CCCCCCCCO [Octanol]
Growth response (turbidity) ([2]; 0.001 g/L, 24 hours of incubation): ++
Growth response (turbidity) ([2]; 0.001 g/L, 48 hours of incubation): ++
Growth response (turbidity) ([2]; 0.001 g/L, 120 hours of incubation): ++
Growth response (turbidity) ([2]; 0.005 g/L, 24 hours of incubation): ++
Growth response (turbidity) ([2]; 0.005 g/L, 48 hours of incubation): ++
Growth response (turbidity) ([2]; 0.005 g/L, 120 hours of incubation): ++
Growth response (turbidity) ([2]; 0.01 g/L, 24 hours of incubation): ++
Growth response (turbidity) ([2]; 0.01 g/L, 48 hours of incubation): ++
Growth response (turbidity) ([2]; 0.01 g/L, 120 hours of incubation): ++
Growth response (turbidity) [2, 4]: ++
Growth response (turbidity) [2, 5]: ++
Growth response (turbidity) [2, 6]: ++
Growth response (turbidity) ([2]; 0.25 g/L, 24 hours of incubation): −
Growth response (turbidity) ([2]; 0.25 g/L, 48 hours of incubation): −
Growth response (turbidity) ([2]; 0.25 g/L, 120 hours of incubation): −
Growth response (turbidity) [2, 7]: −
Growth response (turbidity) [2, 8]: −
Growth response (turbidity) [2, 9]: −
change in Log cell number ([3]; 0.05 g/L): 0
Final anaerobic vial OD ([3]; 0.05 g/L): 0.28
change in Log cell number ([3]; 0.1 g/L): −1
Final anaerobic vial OD ([3]; 0.1 g/L): 0.4
change in Log cell number ([3]; 0.2 g/L): 0
Final anaerobic vial OD ([3]; 0.2 g/L): 0.54
change in Log cell number ([3]; 0.25 g/L): −1
Final anaerobic vial OD ([3]; 0.25 g/L): 0.4
change in Log cell number ([3]; 0.5 g/L): −1
Final anaerobic vial OD ([3]; 0.5 g/L): 0.01
effectiveness of the inhibitor in words ([3]; judged by OD600 and cell killing, Table 3): ineffective except at the highest concentrations

CCCCCCCCCCCCN(C)C [N,N,-dimethyldodecylamine]
growth (turbidity) ([1]; 0.0001 g/L): ++
growth (turbidity) ([1]; 0.001 g/L): ++
growth (turbidity) ([1]; 0.005 g/L): ++
growth (turbidity) ([1]; 0.01 g/L): ++
growth (turbidity) ([1]; 0.1 g/L): −
growth (turbidity) ([1]; 0.5 g/L): −
growth (turbidity) ([1]; 1 g/L): −

CCO [Ethanol]
Growth response (turbidity) [2, 4]: ++
Growth response (turbidity) [2, 5]: ++
Growth response (turbidity) [2, 6]: ++
Growth response (turbidity) ([2]; 0.1 g/L, 24 hours of incubation): ++
Growth response (turbidity) ([2]; 0.1 g/L, 48 hours of incubation): ++
Growth response (turbidity) ([2]; 0.1 g/L, 120 hours of incubation): ++
Growth response (turbidity) [2, 7]: ++
Growth response (turbidity) [2, 8]: ++
Growth response (turbidity) [2, 9]: ++
Growth response (turbidity) ([2]; 1 g/L, 24 hours of incubation): ++
Growth response (turbidity) ([2]; 1 g/L, 48 hours of incubation): ++
Growth response (turbidity) ([2]; 1 g/L, 120 hours of incubation): ++
Growth response (turbidity) ([2]; 10 g/L, 24 hours of incubation): ++
Growth response (turbidity) ([2]; 10 g/L, 48 hours of incubation): ++
Growth response (turbidity) [2, 10]: ++
Growth response (turbidity) ([2]; 20 g/L, 24 hours of incubation): +
Growth response (turbidity) ([2]; 20 g/L, 48 hours of incubation): ++
Growth response (turbidity) [2, 11]: ++
Growth response (turbidity) ([2]; 50 g/L, 24 hours of incubation): −
Growth response (turbidity) ([2]; 50 g/L, 48 hours of incubation): −
Growth response (turbidity) [2, 12]: −

OCC(O)CO [Glycerol]
Growth response (turbidity) ([2]; 10 g/L, 24 hours of incubation): ++
Growth response (turbidity) ([2]; 10 g/L, 48 hours of incubation): ++
Growth response (turbidity) [2, 10]: ++
Growth response (turbidity) ([2]; 20 g/L, 24 hours of incubation): ++
Growth response (turbidity) ([2]; 20 g/L, 48 hours of incubation): ++
Growth response (turbidity) [2, 11]: ++
Growth response (turbidity) ([2]; 50 g/L, 24 hours of incubation): ++
Growth response (turbidity) ([2]; 50 g/L, 48 hours of incubation): ++
Growth response (turbidity) [2, 12]: ++
Growth response (turbidity) ([2]; 100 g/L, 24 hours of incubation): ++
Growth response (turbidity) ([2]; 100 g/L, 48 hours of incubation): ++
Growth response (turbidity) ([2]; 100 g/L, 120 hours of incubation): ++
Growth response (turbidity) ([2]; 200 g/L, 24 hours of incubation): −
Growth response (turbidity) ([2]; 200 g/L, 48 hours of incubation): −
Growth response (turbidity) ([2]; 200 g/L, 120 hours of incubation): −
